Measurements taken from patent US20230147683A1, “TREATMENT” (UNION Therapeutics A/S, priority 2020, published 2023).

Tested on: European D614G strain of SARS-CoV-2 (BavPat1/2020)
Format: cell-based

## O=C(Nc1ccc([N+](=O)[O-])cc1Cl)c1cc(Cl)ccc1O [niclosamide ethanolamine]
  reduction of intracellular viral RNA level compared to non-treated control: 3 fold
